These results are taken from US7928099B2, “Pyrimido [4,5-D] azepine derivatives as 5-HT2c agonists” (Pfizer Inc, priority 2007, dated 2011).

Assay [1] deals with T1, human recombinant 5-HT2c receptor (Homo sapiens, UniProt P28335).
T1 construct: expressed in transfected cells; host or cells: CHO K1 (Chinese hamster ovary), stably transfected
T1 sequence (P28335 33-458): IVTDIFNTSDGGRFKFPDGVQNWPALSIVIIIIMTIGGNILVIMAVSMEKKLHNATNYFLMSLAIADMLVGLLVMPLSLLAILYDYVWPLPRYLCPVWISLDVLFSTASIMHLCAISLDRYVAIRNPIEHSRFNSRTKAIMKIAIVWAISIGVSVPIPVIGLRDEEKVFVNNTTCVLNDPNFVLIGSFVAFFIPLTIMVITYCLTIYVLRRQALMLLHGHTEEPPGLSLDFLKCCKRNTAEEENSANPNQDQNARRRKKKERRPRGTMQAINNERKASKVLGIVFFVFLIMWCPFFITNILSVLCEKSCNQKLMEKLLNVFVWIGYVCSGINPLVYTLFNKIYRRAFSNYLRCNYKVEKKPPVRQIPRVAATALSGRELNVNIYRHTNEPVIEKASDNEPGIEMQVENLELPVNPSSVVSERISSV
Nature of the assay: 3H-meselurgine radioligand binding SPA, membranes from Swiss 3T3 cells (Method 2). Particulars: 3H-meselurgine displacement, Cheng-Prusoff; Swiss 3T3 membranes; read-out: Binding Affinity Ki. How it is done:
The compounds of the invention were evaluated for biological activity by measuring the agonist affinity (EC50) and efficacy (Emax) at the human recombinant 5-HT2c receptor expressed in CHO K1 cells, using a fluorescent based Ca^2+ mobilisation assay format compatible with FLIPR technology (Method 1). Additionally, the binding activity of a compound was determined by measuring its affinity for the human recombinant 5-HT2c receptor membranes from Swiss 3T3 cells (Method 2).
The compounds were tested for biological activity by their ability to inhibit binding of the radioligand ^3H-meselurgine at the human recombinant 5-HT2C receptor expressed in the Swiss 3T3 cells using a scintillation proximity assay (SPA) technology.
Swiss 3T3 stably transfected with the 5-HT2C receptor were cultured under standard cell culture techniques. Specifically, cells were grown in 50 mL growth medium (Dulbecco's Modified Eagle's Medium (DMEM) culture media supplemented with 10% dialysed foetal calf serum (FCS), 2 mM penicillin/streptomycin and 20 μg/mL geneticin) in 225 cm^2 flasks at 37° C. and 5% CO2. Cells were grown to 60-80% confluency, harvested using trypsin-EDTA and pelleted by centrifugation for long-term storage at −80° C.
Cell pellets were thawed on ice and resuspended in 3 mL of membrane preparation buffer (see Media and Buffers for composition) per 1 mL of packed cell. The suspension was homogenised on ice for several 5 s intervals using a hand-held homogeniser. The homogenate was then centrifuged at 1,000 rpm for 5 min at 4° C.
The supernatants were then collected and retained. Initial cell & nuclei pellets (P1) were subsequently rehomogenised and centrifuged using the conditions cited above, and the supernatants collected and pooled with those retained from the first spin.
The pooled supernatants were centrifuged at 19,500 rpm for 45 min at 4° C., and the supernatants discarded. The pellets (P2) were then resuspended in 3 mL of membrane preparation buffer per 1 mL of the original packed cell volume. Protein concentrations were subsequently measured and the membrane suspension was finally frozen in aliquots of set volume and stored at −80° C. prior to use in assays.
For each batch of membrane used, optimal concentrations of Polylysine YSi SPA beads and membrane were determined. The assay free radioligand concentration was expressed as a percentage of the total free radioligand concentration to give an estimate of the radioligand depletion.
The affinity of ^3H-meselurgine for the human recombinant 5-HT2c receptor was determined for each membrane batch at the selected protein and bead concentrations. […] The mean KD for ^3H-meselurgine at a batch of membranes was determined from data from a minimum of three separate assays.
The required amount of membrane, was thawed on ice and added to a pre-determined volume of bead suspension in 50 mM HEPES buffer, pH 7.4. The beads were then pre-coupled by incubating the predetermined protein quantity per mg of bead on a roller 4° C. for 1 h. Subsequently, the bead/membrane complex was spun down at 1000 rpm for 5 min. The resulting pellet was resuspended in assay buffer at the specific concentration required for the final assay.
An aliquot of [^3H]-meselurgine stock was diluted in binding assay buffer to give a pre-determined final assay concentration less than the equilibrium dissociation constant (KD) value.
All test compounds were prepared at a concentration of 4 mM in 100% dimethyl sulphoxide (DMSO) from dry samples.
The same volume of assay buffer was added to specific wells of the plate to enable subsequent measurement of total radioligand binding. Furthermore, 5 μL of Mianserin at 25 μM (2.5 μM final assay concentration was subsequently added to pre-determined wells to determine non-specific binding (NSB).

For assay [2], the target named is T1, human recombinant 5-HT2c receptor. As to the kind of experiment: FLIPR fluorescent Ca2+ mobilisation agonist assay in CHO K1 cells (Method 1). Type of assay: cell-based. The note with it: for EC50: agonist affinity, FLIPR. On the technique in general: Calcium flux is commonly read through the fluorescence of an indicator in the cells.
The mark [3] stands for this setting: CHO-K1, efficacy, percentage of mean maximal response to 10 μM 5-HT.
The mark [4] stands for this setting: efficacy, percentage of mean maximal response to 10 μM 5-HT.

Structures can show the parent of a compound that is named as a salt.

A word on the Ki: it is the equilibrium dissociation constant of an inhibitor or competing ligand from its target. One may read the Emax as the size of the effect at its maximum, as opposed to the concentration needed. By EC50 is commonly meant the midpoint of the concentration-response curve. Regarding `OCCNc1nc(Cc2ccccc2)nc2c1CCNCC2` [Example 23, 2-[(2-benzyl-6,7,8,9-tetrahydro-5H-pyrimido[4,5-d]azepin-4-yl)amino]ethanol hydrochloride], the Ki in assay [1] came to 0.107 µM. The Emax in assay [2] (setting [3]) came out at 72.6%. Further, the EC50 in assay [2] worked out at 0.159 µM.

As for `COc1nc(C(F)(F)c2ccccc2)nc2c1CCNCC2` [Example 72A, 2-(Difluoro-phenyl-methyl)-4-methoxy-6,7,8,9-tetrahydro-5H-pyrimido[4,5-d]azepine hydrochloride], in assay [1], the Ki was found to be 0.015 µM. Moreover, the EC50 in assay [2] turned out to be 0.0356 µM. In addition, the Emax in assay [2] (setting [4]) is 31.9%.

For the molecule `COc1nc(N(C)Cc2ccccc2)nc2c1CCNCC2` [Example 16, N-benzyl-4-methoxy-N-methyl-6,7,8,9-tetrahydro-5H-pyrimido[4,5,d]azepin-2-amine], the Ki in assay [1] was 0.0547 µM. Further, the Emax in assay [2] (setting [3]) was 41.4%. In addition, in assay [2], the EC50 stood at 0.526 µM.

For `Clc1cccc(Cc2ncc3c(n2)CCNCC3)c1` [Example 56, 2-(3-Chlorobenzyl)-6,7,8,9-tetrahydro-5H-pyrimido[4,5-d]azepine], in assay [1], the Ki worked out at 0.0839 µM. For the same molecule, the EC50 in assay [2] came to 0.18 µM. For the same molecule, in assay [2] (setting [4]), the Emax is 55.9%.

With `FC1CCN(c2nc(Cc3ccccc3)nc3c2CCNCC3)C1` (stereo not drawn) [Example 43, 2-benzyl-4-(3-fluoropyrrolidin-1-yl)-6,7,8,9-tetrahydro-5H-pyrimido[4,5-d]azepine hydrochloride], the Ki in assay [1] amounted to 0.061 µM. In addition, in assay [2] (setting [3]), the Emax was found to be 52.6%. The concentration giving a half-maximal response (EC50) in assay [2] was determined as 0.19 µM.

As for `N#CC1CCCN(c2nc(Cc3ccccc3)nc3c2CCNCC3)C1` (stereo not drawn) [Example 40, 1-(2-benzyl-6,7,8,9-tetrahydro-5H-pyrimido[4,5-d]azepin-4-yl)piperidine-3-carbonitrile hydrochloride], in assay [1], the Ki came to 0.413 µM. The Emax in assay [2] (setting [3]) came out at 40.6%. Further, the EC50 in assay [2] turned out to be 0.309 µM.

In the case of `CN(C)c1ncc2c(n1)CCNCC2` [Example 50, N,N-dimethyl-6,7,8,9-tetrahydro-5H-pyrimido[4,5-d]azepin-2-amine hydrochloride], the Ki in assay [1] stood at 0.552 µM. Also, in assay [2] (setting [3]), the Emax was determined as 100%. For the same molecule, in assay [2], the EC50 was 0.481 µM.

Turning to `CN(C)c1nc(N(C)CC2CC2)nc2c1CCNCC2` [Example 104, N-2-(cyclopropylmethyl)-N-2,N-4,N-4-trimethyl-6,7,8,9-tetrahydro-5H-pyrimido[4,5-d]azepine-2,4-diamine], the Ki in assay [1] amounted to 0.0903 µM. The Emax in assay [2] (setting [3]) was 69%. For the same molecule, the 50% effective concentration (EC50) in assay [2] amounted to 0.282 µM.

In the case of `CO[C@H]1CCN(c2nc(Cc3ccccc3)nc3c2CCNCC3)C1` [Example 26, 2-benzyl-4-[(3S)-3-methoxypyrrolidin-1-yl]-6,7,8,9-tetrahydro-5H-pyrimido[4,5-d]azepine hydrochloride], the Ki in assay [1] was 0.229 µM. In addition, the Emax in assay [2] (setting [3]) was 60.9%. Moreover, the EC50 in assay [2] was found to be 0.417 µM.

In the case of `CC1CNCCc2cnc(Cc3ccccc3)nc21` (single isomer, unassigned) [47 (Peak 1), 2-Benzyl-9-methyl-6,7,8,9-tetrahydro-5H-pyrimido[4,5-d]azepine], in assay [1], the inhibition constant (Ki) was 0.133 µM. For the same molecule, in assay [2], the EC50 was 0.453 µM. The Emax % in assay [2] (setting [4]) was 96.40%.

Take `Fc1ccc(Cc2ncc3c(n2)CCNCC3)cc1` [Example 62, 2-(4-Fluorobenzyl)-6,7,8,9-tetrahydro-5H-pyrimido[4,5-d]azepine]: the Ki in assay [1] is 0.471 µM. For the same molecule, the maximum response (Emax) in assay [2] (setting [3]) is 59.6%. The EC50 in assay [2] was found to be 0.309 µM.

In the case of `CC(C)[C@@H](CO)Nc1nc(Cc2ccccc2)nc2c1CCNCC2` [Example 24, (2S)-2-[(2-benzyl-6,7,8,9-tetrahydro-5H-pyrimido[4,5-d]azepin-4-yl)amino]-3-methylbutan-1-ol hydrochloride], the inhibition constant Ki in assay [1] was 0.0914 µM. In addition, the Emax in assay [2] (setting [3]) was determined as 69.9%. Further, the EC50 in assay [2] came out at 0.119 µM.

Consider `CCc1nc(Cc2ccccc2)nc2c1CCNCC2` [Example 52, 2-Benzyl-4-ethyl-6,7,8,9-tetrahydro-5H-pyrimido[4,5-d]azepine], for which the inhibition constant Ki in assay [1] worked out at 0.142 µM. The Emax in assay [2] (setting [3]) stood at 71.6%. In addition, in assay [2], the EC50 came out at 0.314 µM.

Turning to `Cc1nc(Cc2ccccc2)nc2c1CCNCC2` [Example 68, 2-Benzyl-4-methyl-6,7,8,9-tetrahydro-5H-pyrimido[4,5-d]azepine], the Ki in assay [1] is 0.421 µM. For the same molecule, in assay [2] (setting [3]), the Emax worked out at 71.4%. In assay [2], the 50% effective concentration (EC50) came to 0.179 µM.

Consider `COc1nc(C(F)(F)c2ccccc2)nc2c1CCNCC2` [Example 72, 2-(Difluoro-phenyl-methyl)-4-methoxy-6,7,8,9-tetrahydro-5H-pyrimido[4,5-d]azepine], for which, in assay [1], the Ki is 0.0777 µM. Further, the Emax in assay [2] (setting [3]) was determined as 41.1%. The EC50 in assay [2] was found to be 0.08 µM.

Take `OCC1CCN(c2nc(Cc3ccccc3)nc3c2CCNCC3)C1` (stereo not drawn) [Example 42, [1-(2-benzyl-6,7,8,9-tetrahydro-5H-pyrimido[4,5-d]azepin-4-yl)pyrrolidin-3-yl]methanol hydrochloride]: the inhibitory constant (Ki) in assay [1] was found to be 0.102 µM. The Emax in assay [2] (setting [3]) was found to be 75.4%. Moreover, the concentration giving a half-maximal response (EC50) in assay [2] turned out to be 0.067 µM.

Turning to `Cc1ccccc1Cc1ncc2c(n1)CCNCC2` [Example 66, 2-(2-Methylbenzyl)-6,7,8,9-tetrahydro-5H-pyrimido[4,5-d]azepine], in assay [1], the Ki was found to be 0.304 µM. Besides, the Emax in assay [2] (setting [3]) was determined as 70.5%. For the same molecule, the half-maximal effective concentration (EC50) in assay [2] turned out to be 0.332 µM.

Consider `C1CCN(c2nc3c(c(N4CCSCC4)n2)CCNCC3)C1` [Example 106, 2-pyrrolodin-1-yl-4-thiomorpholin-4-yl-6,7,8,9-tetrahydro-5H-pyrimido[4,5-d]azepine], for which the Ki in assay [1] came to 0.0416 µM. Moreover, the Emax in assay [2] (setting [3]) came to 78.4%. The EC50 in assay [2] is 0.1 µM.

Take `OC(c1ccccc1)c1ncc2c(n1)CCNCC2` (single isomer, unassigned; stereoisomer 1) [Example 70, Phenyl-(6,7,8,9-tetrahydro-5H-pyrimido[4,5-d]azepin-2-yl)-methanol dihydrochloride (Stereoisomer 1)]: in assay [1], the Ki was determined as 0.978 µM. Also, the Emax in assay [2] (setting [3]) came to 76%. The EC50 in assay [2] worked out at 0.643 µM.

For `CC1CNCCc2cnc(Cc3ccccc3)nc21` (single isomer, unassigned) [47 (Peak 2), 2-Benzyl-9-methyl-6,7,8,9-tetrahydro-5H-pyrimido[4,5-d]azepine], in assay [1], the Ki stood at 0.218 µM. Besides, in assay [2] (setting [3]), the maximal effect (Emax) was found to be 76.6%. In addition, the EC50 in assay [2] came to 0.233 µM.

Regarding `CN(CC1CC1)c1nc(N2CCSCC2)nc2c1CCNCC2` [Example 90, N-(cyclopropylmethyl)-N-methyl-2-thiomorpholin-4-yl-6,7,8,9-tetrahydro-5H-pyrimido[4,5-d]azepin-4-amine], the Ki in assay [1] was found to be 0.0247 µM. For the same molecule, the Emax in assay [2] (setting [3]) worked out at 87.3%. In addition, the EC50 in assay [2] stood at 0.0759 µM.

`CC(c1ccccc1)c1ncc2c(n1)CCNCC2` (stereo not drawn) [Example 2, 2-(1-Phenylethyl)-6,7,8,9-tetrahydro-5H-pyrimido[4,5-d]azepine]: in assay [1], the Ki amounted to 0.14 µM. Also, the Emax in assay [2] (setting [3]) was determined as 84.9%. The EC50 in assay [2] is 0.198 µM.
